According to patent US7989422B2, “Antibacterial agents” (Alchemia Limited, priority 2005, dated 2011):

Legend:
Format in all cases: cell-based
[1] = test system: Enterococcus faecium ATCC 35667; experiment: MIC against E. faecium, microbroth dilution; conditions: MIC class
Procedure: (§1) Testing was conducted to determine the in vitro antimicrobial activity of a series of compounds synthesised by Alchemia Pty Ltd. The antimicrobial activity of each compound was determined at a single concentration (128 μg/mL) in Mueller Hinton (MH) broth against the ATCC type strain of Staphylococcus aureus. […] Compounds showing activity at concentrations up to 32-64 μg/mL in the presence/absence of serum were then tested for MIC activity against a standard set of 5 microorganisms comprising of ATCC type strains of MRSA, Enterococcus faecalis, Enterococcus faecium, VRE and Escherichia coli. CLSI (formerly NCCLS) microbroth dilution technique was used.
(§2) Each compound is initially dissolved in 100 μL of DMSO. Each solution is then diluted further in 0.9 mL of sterile MH broth to give a total volume of 1 mL (1000 μg/mL) This stock solution is then further diluted in MH broth to give a test solution with final concentration of 128 μg/mL using the following formula: 0.5 ml stock in 3.4 ml MH broth
(§3) Each test organism was subcultured from the −70° C. deep freezer onto horse blood agar. The plates were streaked to obtain isolated colonies and incubated at 35° C. in non-CO2 incubator for 24 hours. A second subculture was carried out onto horse blood agar. For each test organism, 1-2 colonies were selected from an 18-24 hour culture and inoculated into 2 ml sterile MH broth. The turbidity was adjusted to 0.5 McFarland standard.
(§4) A 1:10 dilution in MH broth (200 μL in 2 ml MH) of the 0.5 McFarland control was prepared. 5 μL of this diluted solution was used to inoculate the trays.
(§5) The trays were prepared in a similar way as mentioned above and incubated at 35° C. in a non-CO2 incubator for 18-24 hours. The plates were examined for growth after the incubation time.
(§6) After 18-24 hour incubation 5 μL from each well was then inoculated onto horse blood agar and incubated for 18-24 hours at 35° C. in a non-CO2 incubator.
(§7) If the test organism is sensitive to the compound in the broth the growth will be inhibited. Similarly, if the organism grows on the antibiotic containing medium then it is resistant to this particular antibiotic.

[2] = test system: E. Faecium 51299 VanB; experiment: MIC against vancomycin-resistant enterococcus 51299 (VanB), microbroth dilution; conditions: MIC class; ATCC 51299 VanB
Procedure: as §1, §2, §3, §4, §5, §6, §7

[3] = test system: Staphylococcus aureus ATCC 25923; experiment: MIC against S. aureus, microbroth dilution in MH broth, without or with 5% horse serum; conditions: MIC class; S. aureus ATCC 25923
Procedure: as §1, §2, §3, §4
100 μL of sterile MH broth was added in columns 2-12. 200 μL of test solution was added in column 1. 100 μL was transferred in column 2 giving a ½ dilution. 100 μL from column 2 was then transferred to column 3 (¼ dilution). This dilution was carried on until column 12. A second tray containing the same test solution was inoculated in a similar manner using sterile MH broth with 5% heat inactivated horse serum. 5 μL of organism solution was then added to each well. The plates were then sealed and incubated at 35° C. in a non-CO2 incubator for 18-24 hours. The plates were examined for growth after the incubation time.
as §7

[4] = test system: Enterococcus faecalis ATCC 29212; experiment: MIC against E. faecalis, microbroth dilution; conditions: MIC class
Procedure: as §1, §2, §3, §4, §5, §6, §7

[5] = test system: Staphylococcus aureus (MRSA) ATCC 33591; experiment: MIC against MRSA, microbroth dilution; conditions: MIC class
Procedure: as §1, §2, §3, §4, §5, §6, §7

| SMILES | E. Faecium 35667 activity [1] | E. Faecium 51299 VanB activity [2] | S. Aureus 25923 activity [3] | E. Fecalis 29212 activity [4] | S. Aureus 33591 MRSA activity [5] |
| --- | --- | --- | --- | --- | --- |
| Nc1nc2cc(C(F)(F)F)cc(Cl)c2n1C1COC(CO)C(NC(=O)c2ccc(-c3ccccc3)cc2)C1O (stereo not drawn) [Compound 155] | − (“−”: MIC (μg/mL): MIC > 64) | − (“−”: MIC (μg/mL): MIC > 64) | + (“+”: MIC (μg/mL): 64 ≧ MIC > 16) | − (“−”: MIC (μg/mL): MIC > 64) | + (“+”: MIC (μg/mL): 64 ≧ MIC > 16) |
| Nc1cc(C(F)(F)F)cc(Cl)c1NC1COC(CO)C(NC(=O)C(N)Cc2ccc(-c3ccccc3)cc2)C1O (stereo not drawn) [Compound 202] | + (“+”: MIC (μg/mL): 64 ≧ MIC > 16) | − (“−”: MIC (μg/mL): MIC > 64) | + (“+”: MIC (μg/mL): 64 ≧ MIC > 16) | − (“−”: MIC (μg/mL): MIC > 64) | + (“+”: MIC (μg/mL): 64 ≧ MIC > 16) |
| CCCCCCCCCCNC1C(CO)OCC(NC(=O)Nc2ccc(Cl)c(C(F)(F)F)c2)C1O (stereo not drawn) [Compound 50] | + (“+”: MIC (μg/mL): 64 ≧ MIC > 16) | − (“−”: MIC (μg/mL): MIC > 64) | + (“+”: MIC (μg/mL): 64 ≧ MIC > 16) | + (“+”: MIC (μg/mL): 64 ≧ MIC > 16) | + (“+”: MIC (μg/mL): 64 ≧ MIC > 16) |
| CCCCCCCCCCCCC(N)C(=O)NC1C(CO)OCC(n2c(O)nc3cc(C(F)(F)F)cc(Cl)c32)C1O (stereo not drawn) [Compound 185] | ++ (“++”: MIC (μg/mL): MIC ≦ 16) | + (“+”: MIC (μg/mL): 64 ≧ MIC > 16) | + (“+”: MIC (μg/mL): 64 ≧ MIC > 16) | ++ (“++”: MIC (μg/mL): MIC ≦ 16) | ++ (“++”: MIC (μg/mL): MIC ≦ 16) |
| NC(C(=O)Nc1nc2cc(C(F)(F)F)ccc2n1C1C(CO)OCC(NC(=O)Nc2ccc(Cl)c(C(F)(F)F)c2)C1O)c1ccc(-c2ccccc2)cc1 (stereo not drawn) [Compound 236] | ++ (“++”: MIC (μg/mL): MIC ≦ 16) | + (“+”: MIC (μg/mL): 64 ≧ MIC > 16) | − (“−”: MIC (μg/mL): MIC > 64) | ++ (“++”: MIC (μg/mL): MIC ≦ 16) | ++ (“++”: MIC (μg/mL): MIC ≦ 16) |
| O=C(Nc1ccc(Cl)c(C(F)(F)F)c1)NC1COC(CO)C(n2c(NCc3ccccc3)nc3cc(C(F)(F)F)cc(Cl)c32)C1O (stereo not drawn) [Compound 255] | − (“−”: MIC (μg/mL): MIC > 64) | + (“+”: MIC (μg/mL): 64 ≧ MIC > 16) | ++ (“++”: MIC (μg/mL): MIC ≦ 16) | ++ (“++”: MIC (μg/mL): MIC ≦ 16) | ++ (“++”: MIC (μg/mL): MIC ≦ 16) |
| CC(C)(C)c1ccc(CNc2nc3cc(C(F)(F)F)ccc3n2C2C(CO)OCC(NC(=O)Nc3ccc(Cl)c(C(F)(F)F)c3)C2O)cc1 (stereo not drawn) [Compound 248] | ++ (“++”: MIC (μg/mL): MIC ≦ 16) | ++ (“++”: MIC (μg/mL): MIC ≦ 16) | ++ (“++”: MIC (μg/mL): MIC ≦ 16) | ++ (“++”: MIC (μg/mL): MIC ≦ 16) | ++ (“++”: MIC (μg/mL): MIC ≦ 16) |
| Nc1ccccc1OC1C(NC(=O)Nc2ccc(Cl)c(C(F)(F)F)c2)COC(CO)C1NC(=O)C(N)Cc1ccc(-c2ccccc2)cc1 (single isomer, unassigned) [Compound 70] | + (“+”: MIC (μg/mL): 64 ≧ MIC > 16) | − (“−”: MIC (μg/mL): MIC > 64) | + (“+”: MIC (μg/mL): 64 ≧ MIC > 16) | + (“+”: MIC (μg/mL): 64 ≧ MIC > 16) | ++ (“++”: MIC (μg/mL): MIC ≦ 16) |
| Nc1ccccc1OC1C(NC(=O)Nc2ccc(Cl)c(C(F)(F)F)c2)COC(CO)C1NS(=O)(=O)c1ccc(-c2ccccc2)cc1 (stereo not drawn) [Compound 62] | − (“−”: MIC (μg/mL): MIC > 64) | − (“−”: MIC (μg/mL): MIC > 64) | + (“+”: MIC (μg/mL): 64 ≧ MIC > 16) | − (“−”: MIC (μg/mL): MIC > 64) | ++ (“++”: MIC (μg/mL): MIC ≦ 16) |
| CCCCCCCCCCCCC(N)C(=O)NC1C(CO)OCC(Nc2ccc(C(F)(F)F)cc2[N+](=O)[O-])C1O (stereo not drawn) [Compound 197] | + (“+”: MIC (μg/mL): 64 ≧ MIC > 16) | + (“+”: MIC (μg/mL): 64 ≧ MIC > 16) | ++ (“++”: MIC (μg/mL): MIC ≦ 16) | + (“+”: MIC (μg/mL): 64 ≧ MIC > 16) | + (“+”: MIC (μg/mL): 64 ≧ MIC > 16) |
| NC(Cc1ccc(-c2ccccc2)cc1)C(=O)NC1C(CO)OCC(n2c(O)nc3cc(C(F)(F)F)cc(Cl)c32)C1O (stereo not drawn) [Compound 161] | − (“−”: MIC (μg/mL): MIC > 64) | − (“−”: MIC (μg/mL): MIC > 64) | + (“+”: MIC (μg/mL): 64 ≧ MIC > 16) | + (“+”: MIC (μg/mL): 64 ≧ MIC > 16) | + (“+”: MIC (μg/mL): 64 ≧ MIC > 16) |
| CCCCCCCCCCCCC(N)C(=O)NC1C(CO)OCC(n2c(S)nc3cc(C(F)(F)F)ccc32)C1O (stereo not drawn) [Compound 182] | ++ (“++”: MIC (μg/mL): MIC ≦ 16) | ++ (“++”: MIC (μg/mL): MIC ≦ 16) | ++ (“++”: MIC (μg/mL): MIC ≦ 16) | ++ (“++”: MIC (μg/mL): MIC ≦ 16) | ++ (“++”: MIC (μg/mL): MIC ≦ 16) |
| NC(Cc1ccc(-c2ccccc2)cc1)C(=O)Nc1nc2cc(C(F)(F)F)ccc2n1C1C(CO)OCC(NC(=O)Nc2ccc(Cl)c(C(F)(F)F)c2)C1O (stereo not drawn) [Compound 237] | − (“−”: MIC (μg/mL): MIC > 64) | − (“−”: MIC (μg/mL): MIC > 64) | − (“−”: MIC (μg/mL): MIC > 64) | ++ (“++”: MIC (μg/mL): MIC ≦ 16) | ++ (“++”: MIC (μg/mL): MIC ≦ 16) |
| CCCCCCCCCCCCC(N)C(=O)NC1C(CO)OCC(n2c(N)nc3cc(C(F)(F)F)cc(Cl)c32)C1O (stereo not drawn) [Compound 187] | + (“+”: MIC (μg/mL): 64 ≧ MIC > 16) | ++ (“++”: MIC (μg/mL): MIC ≦ 16) | ++ (“++”: MIC (μg/mL): MIC ≦ 16) | ++ (“++”: MIC (μg/mL): MIC ≦ 16) | ++ (“++”: MIC (μg/mL): MIC ≦ 16) |
| Nc1ccccc1OC1C(NS(=O)(=O)c2ccc(C(F)(F)F)cc2)COC(CO)C1NC(=O)C(N)Cc1ccc(-c2ccccc2)cc1 (stereo not drawn) [Compound 79] | − (“−”: MIC (μg/mL): MIC > 64) | − (“−”: MIC (μg/mL): MIC > 64) | + (“+”: MIC (μg/mL): 64 ≧ MIC > 16) | − (“−”: MIC (μg/mL): MIC > 64) | + (“+”: MIC (μg/mL): 64 ≧ MIC > 16) |
| O=C(Nc1ccc(Cl)c(C(F)(F)F)c1)NC1COC(CO)C(n2c(Nc3ccc(-c4ccccc4)cc3)nc3cc(C(F)(F)F)cc(Cl)c32)C1O (stereo not drawn) [Compound 254] | − (“−”: MIC (μg/mL): MIC > 64) | − (“−”: MIC (μg/mL): MIC > 64) | ++ (“++”: MIC (μg/mL): MIC ≦ 16) | − (“−”: MIC (μg/mL): MIC > 64) | ++ (“++”: MIC (μg/mL): MIC ≦ 16) |
| Nc1ccccc1OC1C(NC(=O)Nc2ccc(Cl)c(C(F)(F)F)c2)COC(CO)C1NC(=O)c1ccc(-c2ccccc2)cc1 (stereo not drawn) [Compound 69] | − (“−”: MIC (μg/mL): MIC > 64) | − (“−”: MIC (μg/mL): MIC > 64) | + (“+”: MIC (μg/mL): 64 ≧ MIC > 16) | − (“−”: MIC (μg/mL): MIC > 64) | − (“−”: MIC (μg/mL): MIC > 64) |
| NC(CC(=O)Nc1nc2cc(C(F)(F)F)ccc2n1C1C(CO)OCC(NS(=O)(=O)c2ccc(C(F)(F)F)cc2)C1O)c1ccc(-c2ccccc2)cc1 (stereo not drawn) [Compound 242] | ++ (“++”: MIC (μg/mL): MIC ≦ 16) | − (“−”: MIC (μg/mL): MIC > 64) | ++ (“++”: MIC (μg/mL): MIC ≦ 16) | ++ (“++”: MIC (μg/mL): MIC ≦ 16) | ++ (“++”: MIC (μg/mL): MIC ≦ 16) |
